# Experimental data from patent publication US12157741B2, “Macrocyclic inhibitors of DYRK1A” (DANA-FARBER CANCER INSTITUTE, INC., priority 2018, dated 2024).
# Where two headings read alike, the source gives them in different places.
# Key:
# [1] = biological target: various enzymes (Homo sapiens, UniProt Q06187); conditions: BTK; 1 uM
# Method: (§2) Ambit profiling from Eurofins (formerly Discoverx) was conducted in accordance with the manufacturer's instructions.
# [2] = biological target: various enzymes (Homo sapiens, UniProt P57059); conditions: SIK; 1 uM
# Method: as §2
# [3] = biological target: T1, various enzymes (Homo sapiens, UniProt O75385); conditions: ULK1; 1 uM
# T1 sequence (O75385 1-1050): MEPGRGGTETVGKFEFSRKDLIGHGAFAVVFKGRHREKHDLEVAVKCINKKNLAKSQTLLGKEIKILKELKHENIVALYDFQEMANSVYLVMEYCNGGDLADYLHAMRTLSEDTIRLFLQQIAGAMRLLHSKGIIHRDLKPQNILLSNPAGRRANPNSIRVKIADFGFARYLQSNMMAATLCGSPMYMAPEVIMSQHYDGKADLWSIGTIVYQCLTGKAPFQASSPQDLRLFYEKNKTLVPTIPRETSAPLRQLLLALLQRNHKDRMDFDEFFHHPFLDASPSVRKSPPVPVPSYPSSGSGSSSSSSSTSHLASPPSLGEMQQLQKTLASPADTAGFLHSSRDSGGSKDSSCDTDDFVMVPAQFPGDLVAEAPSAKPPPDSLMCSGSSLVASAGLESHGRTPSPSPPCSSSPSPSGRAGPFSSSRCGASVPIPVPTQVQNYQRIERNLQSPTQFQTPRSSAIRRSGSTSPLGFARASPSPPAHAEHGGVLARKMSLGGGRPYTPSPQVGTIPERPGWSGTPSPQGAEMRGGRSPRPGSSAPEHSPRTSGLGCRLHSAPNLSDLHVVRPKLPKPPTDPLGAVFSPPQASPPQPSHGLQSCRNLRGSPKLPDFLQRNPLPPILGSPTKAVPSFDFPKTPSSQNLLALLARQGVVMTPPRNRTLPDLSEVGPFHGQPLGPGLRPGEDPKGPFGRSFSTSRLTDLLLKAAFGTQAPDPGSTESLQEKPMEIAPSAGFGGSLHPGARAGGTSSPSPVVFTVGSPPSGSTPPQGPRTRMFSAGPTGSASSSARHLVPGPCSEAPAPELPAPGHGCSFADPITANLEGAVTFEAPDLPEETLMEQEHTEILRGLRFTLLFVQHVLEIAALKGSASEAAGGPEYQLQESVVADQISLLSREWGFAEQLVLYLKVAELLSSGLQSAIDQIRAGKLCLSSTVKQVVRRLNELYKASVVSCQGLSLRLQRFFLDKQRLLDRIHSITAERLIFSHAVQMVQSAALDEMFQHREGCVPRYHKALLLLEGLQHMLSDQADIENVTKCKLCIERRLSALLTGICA
# Method: as §2
# [4] = biological target: various enzymes (Homo sapiens, UniProt Q13705); conditions: ACVR2B; 1 uM
# various enzymes (Homo sapiens, UniProt Q13705), sequence (Q13705 19-512): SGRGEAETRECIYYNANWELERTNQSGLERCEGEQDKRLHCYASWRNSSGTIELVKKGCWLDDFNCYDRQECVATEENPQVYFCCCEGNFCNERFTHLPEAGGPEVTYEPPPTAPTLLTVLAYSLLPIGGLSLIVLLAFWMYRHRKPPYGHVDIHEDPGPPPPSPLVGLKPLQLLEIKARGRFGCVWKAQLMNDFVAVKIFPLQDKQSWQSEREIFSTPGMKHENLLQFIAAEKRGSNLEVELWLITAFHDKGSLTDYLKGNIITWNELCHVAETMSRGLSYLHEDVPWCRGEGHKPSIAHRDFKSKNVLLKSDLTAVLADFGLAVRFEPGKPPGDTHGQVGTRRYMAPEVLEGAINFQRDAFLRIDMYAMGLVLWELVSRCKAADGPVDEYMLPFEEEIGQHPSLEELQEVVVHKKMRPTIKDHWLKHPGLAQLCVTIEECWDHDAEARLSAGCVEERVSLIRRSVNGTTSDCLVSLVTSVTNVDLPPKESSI
# Method: as §2
# [5] = biological target: various enzymes (Homo sapiens, UniProt P00533, G719C)
# Method: as §2
# [6] = biological target: various enzymes (Homo sapiens, UniProt Q9Y6E0); conditions: MST3; 1 uM
# various enzymes (Homo sapiens, UniProt Q9Y6E0), sequence (Q9Y6E0 whole entry): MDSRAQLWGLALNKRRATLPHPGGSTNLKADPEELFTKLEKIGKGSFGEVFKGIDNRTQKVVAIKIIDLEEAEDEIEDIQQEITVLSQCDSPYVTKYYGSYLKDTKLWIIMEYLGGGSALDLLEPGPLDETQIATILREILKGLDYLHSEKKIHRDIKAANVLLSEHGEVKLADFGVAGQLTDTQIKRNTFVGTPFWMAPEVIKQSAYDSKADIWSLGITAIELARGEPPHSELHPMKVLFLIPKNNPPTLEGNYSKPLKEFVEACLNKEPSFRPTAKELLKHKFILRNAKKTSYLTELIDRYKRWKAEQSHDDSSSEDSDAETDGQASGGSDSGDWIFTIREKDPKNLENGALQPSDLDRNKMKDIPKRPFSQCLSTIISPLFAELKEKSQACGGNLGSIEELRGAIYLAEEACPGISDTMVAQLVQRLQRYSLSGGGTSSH
# Method: as §2
# [7] = biological target: T2, various enzymes (Homo sapiens, UniProt O43283); conditions: LZK; 1 uM
# T2 sequence (O43283 1-966): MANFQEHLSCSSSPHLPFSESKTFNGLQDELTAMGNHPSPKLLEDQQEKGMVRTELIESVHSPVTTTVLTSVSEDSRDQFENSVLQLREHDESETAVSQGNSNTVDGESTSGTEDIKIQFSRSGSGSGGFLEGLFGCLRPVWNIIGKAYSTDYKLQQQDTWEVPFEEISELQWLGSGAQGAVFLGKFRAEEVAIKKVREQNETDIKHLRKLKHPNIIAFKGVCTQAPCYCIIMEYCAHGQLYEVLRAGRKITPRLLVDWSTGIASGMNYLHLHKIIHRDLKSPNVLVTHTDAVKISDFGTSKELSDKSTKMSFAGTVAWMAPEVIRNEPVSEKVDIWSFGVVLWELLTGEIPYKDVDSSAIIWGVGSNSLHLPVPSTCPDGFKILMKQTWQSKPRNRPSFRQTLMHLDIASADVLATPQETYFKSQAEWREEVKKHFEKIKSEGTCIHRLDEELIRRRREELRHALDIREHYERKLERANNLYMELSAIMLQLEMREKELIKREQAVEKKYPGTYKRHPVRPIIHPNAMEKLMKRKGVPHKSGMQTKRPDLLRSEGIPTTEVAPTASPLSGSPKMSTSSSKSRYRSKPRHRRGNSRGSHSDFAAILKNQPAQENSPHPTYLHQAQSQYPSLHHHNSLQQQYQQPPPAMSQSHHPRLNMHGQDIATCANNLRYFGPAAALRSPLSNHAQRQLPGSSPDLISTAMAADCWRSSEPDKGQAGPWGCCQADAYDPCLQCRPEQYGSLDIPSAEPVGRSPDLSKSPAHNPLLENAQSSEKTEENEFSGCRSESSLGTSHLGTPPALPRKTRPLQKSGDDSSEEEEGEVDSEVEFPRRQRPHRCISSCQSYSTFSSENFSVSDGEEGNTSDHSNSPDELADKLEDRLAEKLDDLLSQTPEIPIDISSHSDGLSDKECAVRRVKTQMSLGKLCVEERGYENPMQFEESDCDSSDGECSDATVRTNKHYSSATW
# Method: as §2
# [8] = biological target: various enzymes (Homo sapiens, UniProt Q9BWU1); conditions: CDK11; 1 uM
# various enzymes (Homo sapiens, UniProt Q9BWU1), sequence (Q9BWU1 whole entry): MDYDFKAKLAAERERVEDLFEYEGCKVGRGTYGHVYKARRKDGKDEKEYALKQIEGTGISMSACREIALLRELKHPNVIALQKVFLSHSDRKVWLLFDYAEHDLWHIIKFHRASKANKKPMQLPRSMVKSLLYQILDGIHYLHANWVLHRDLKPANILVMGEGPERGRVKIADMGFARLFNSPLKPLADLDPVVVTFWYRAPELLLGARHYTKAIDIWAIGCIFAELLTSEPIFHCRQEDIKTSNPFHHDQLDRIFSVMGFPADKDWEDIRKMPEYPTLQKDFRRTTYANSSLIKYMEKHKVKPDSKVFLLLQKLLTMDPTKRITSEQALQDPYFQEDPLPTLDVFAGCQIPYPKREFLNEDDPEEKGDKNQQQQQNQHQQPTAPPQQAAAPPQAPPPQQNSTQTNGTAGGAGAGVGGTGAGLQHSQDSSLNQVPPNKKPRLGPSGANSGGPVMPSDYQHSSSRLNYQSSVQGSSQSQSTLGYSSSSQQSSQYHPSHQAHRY
# Method: as §2
# [9] = biological target: various enzymes (Homo sapiens, UniProt P08581, M1250T)
# Method: as §2
# [10] = biological target: various enzymes (Homo sapiens, UniProt P00533, G719S)
# Method: as §2
# [11] = biological target: various enzymes (Homo sapiens, UniProt P00533, DEL747-752/P753S); format: binding; parameters: other: EGFR(L747-S752del, P753S); 1 uM; other: compound 1 uM
# Method: (§1) Ambit profiling was conducted in accordance with the manufacturer's instructions.
# [12] = biological target: various enzymes (Homo sapiens, UniProt P00533, DELINS747-751S); format: binding; parameters: other: EGFR(L747-T751del, Sins); 1 uM; other: compound 1 uM; conditions: compound 1 uM
# Method: as §1
# various enzymes (Homo sapiens, UniProt P57059), sequence (P57059 whole entry): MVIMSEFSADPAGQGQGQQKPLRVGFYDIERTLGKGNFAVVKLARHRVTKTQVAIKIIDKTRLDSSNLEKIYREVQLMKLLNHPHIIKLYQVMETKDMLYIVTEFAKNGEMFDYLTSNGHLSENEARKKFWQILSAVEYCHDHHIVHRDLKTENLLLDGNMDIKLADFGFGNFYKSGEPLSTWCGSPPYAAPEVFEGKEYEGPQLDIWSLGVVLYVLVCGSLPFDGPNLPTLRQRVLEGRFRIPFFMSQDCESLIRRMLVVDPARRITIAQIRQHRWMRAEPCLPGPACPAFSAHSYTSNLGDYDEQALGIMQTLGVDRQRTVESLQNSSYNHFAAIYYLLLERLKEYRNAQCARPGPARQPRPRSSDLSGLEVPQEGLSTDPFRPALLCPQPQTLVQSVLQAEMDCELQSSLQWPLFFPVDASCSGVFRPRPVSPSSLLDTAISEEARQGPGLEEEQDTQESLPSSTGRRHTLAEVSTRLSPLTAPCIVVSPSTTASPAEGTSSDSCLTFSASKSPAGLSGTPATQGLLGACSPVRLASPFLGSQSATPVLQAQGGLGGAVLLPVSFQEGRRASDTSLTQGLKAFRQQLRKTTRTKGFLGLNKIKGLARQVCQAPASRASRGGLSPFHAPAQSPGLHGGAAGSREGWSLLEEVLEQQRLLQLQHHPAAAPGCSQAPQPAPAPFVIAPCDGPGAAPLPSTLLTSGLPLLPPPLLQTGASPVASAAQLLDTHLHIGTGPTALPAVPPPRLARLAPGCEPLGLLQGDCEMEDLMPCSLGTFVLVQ
# various enzymes (Homo sapiens, UniProt Q06187), sequence (Q06187 whole entry): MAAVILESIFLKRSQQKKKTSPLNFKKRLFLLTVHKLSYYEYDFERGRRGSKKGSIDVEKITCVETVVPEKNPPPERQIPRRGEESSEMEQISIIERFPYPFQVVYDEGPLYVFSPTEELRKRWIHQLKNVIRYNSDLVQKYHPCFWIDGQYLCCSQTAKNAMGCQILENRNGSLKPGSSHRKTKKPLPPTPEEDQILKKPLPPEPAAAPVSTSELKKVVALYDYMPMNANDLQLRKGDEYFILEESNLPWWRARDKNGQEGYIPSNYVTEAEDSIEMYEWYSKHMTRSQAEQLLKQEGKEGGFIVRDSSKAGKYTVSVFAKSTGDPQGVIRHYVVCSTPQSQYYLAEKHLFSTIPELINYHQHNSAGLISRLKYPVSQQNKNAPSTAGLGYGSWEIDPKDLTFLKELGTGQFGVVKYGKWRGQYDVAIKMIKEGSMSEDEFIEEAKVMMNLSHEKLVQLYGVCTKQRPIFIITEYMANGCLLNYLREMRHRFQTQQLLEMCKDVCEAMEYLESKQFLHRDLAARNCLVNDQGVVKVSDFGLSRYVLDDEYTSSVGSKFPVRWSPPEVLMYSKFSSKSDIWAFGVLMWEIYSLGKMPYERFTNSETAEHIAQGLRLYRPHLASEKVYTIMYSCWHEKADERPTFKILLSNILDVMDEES
SMILES,Ambit profiling [1],Ambit profiling [2],Ambit profiling [3],Ambit profiling [4],Ambit profiling [5],Ambit profiling [6],Ambit profiling [7],Ambit profiling [8],Ambit profiling [9],Ambit profiling [10],"Ambit profiling: EGFR(L747-S752del, P753S) [11]","Ambit profiling: EGFR(L747-T751del, Sins) [12]","Ambit profiling: EGFR(L747-S752del, P753S) ([11]; compound 1 uM)","Ambit profiling ([5]; EGFR(G719C), 1 uM)","Ambit profiling ([9]; MET(M1250T), 1 uM)","Ambit profiling ([10]; EGFR(G719S), 1 uM)"
"CN1Cc2nn(C)c(C#N)c2-c2cnc3[nH]cc(c3c2)-c2cn(nc2C(F)(F)F)CCCC1=O [Compound 48, (Z)-31,5-dimethyl-6-oxo-13-(trifluoromethyl)-11H,21H,31H-5-aza-2(3,5)-pyrrolo[2,3-b]pyridina-1(4,1),3(4,3)-dipyrazolacyclononaphane-35-carbonitrile]",97,59,100,98,86,86,100,100,75,71,–,–,–,–,–,–
"COc1c2c(nn1C)CN(C(C)C)C(=O)CCCn1cc(c(C(F)(F)F)n1)-c1c[nH]c3ncc-2cc13 [Compound 50, (Z)-5-isopropyl-35-methoxy-31-methyl-13-(trifluoromethyl)-11H,21H,31H-5-aza-2(3,5)-pyrrolo[2,3-b]pyridina-1(4,1),3(4,3)-dipyrazolacyclononaphan-6-one]",–,–,–,–,–,–,–,–,–,–,14,22,–,–,–,–
"CC(C)N1Cc2nn(C)cc2-c2cnc3[nH]cc(c3c2)-c2cn(nc2C(F)(F)F)CCCC1=O [Compound 45, (Z)-5-isopropyl-31-methyl-13-(trifluoromethyl)-11H,21H,31H-5-aza-2(3,5)-pyrrolo[2,3-b]pyridina-1(4,1),3(4,3)-dipyrazolacyclononaphan-6-one]",–,–,–,–,–,–,–,–,–,–,–,31,15,–,–,–
"CN1Cc2nn(C)cc2-c2cnc3[nH]cc(c3c2)-c2cnn(c2)CCCC1=O [Compound 41, (Z)-31,5-dimethyl-11H,21H,31H-5-aza-2(3,5)-pyrrolo[2,3-b]pyridina-1(4,1),3(4,3)-dipyrazolacyclononaphan-6-one]",61,84,22,65,–,39,11,84,–,–,–,–,–,100,20,100
